Where “and” joins values, the source holds several entries; their conditions need not be identical. Equal entries are not always repeated.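 Method: 48-hour compound exposure of cells in 96-well plates, five concentrations, linear interpolation of endpoints. GI50: concentration for 50% inhibition of growth. The concentration for full growth arrest is given as TGI.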
Assays:
Experiment in all cases: NCI tumour cell line growth inhibition, 48 h
[1] = tested on: SNB-75 CNS
[2] = tested on: SK-MEL-5 melanoma
[3] = tested on: SN12C renal
[4] = tested on: CCRF-CEM leukemia
[5] = tested on: OVCAR-4 ovarian
[6] = tested on: OVCAR-5 ovarian
[7] = tested on: RXF 393 renal
[8] = tested on: BT-549 breast
[9] = tested on: DU-145 prostate
[10] = tested on: MCF7 breast

Structure (SMILES)	TGI [1]	TGI [2]	TGI [3]	TGI [4] [µM]	TGI [5]	TGI [6]	TGI [7]	TGI [8]	TGI [9]	TGI [10]	GI50 [1]	GI50 [2]	GI50 [3]	GI50 [7]	GI50 [4] [µM]	GI50 [5]	GI50 [6]	GI50 [8]	GI50 [9]	GI50 [10]
CSC(C1c2ccccc2N(c2ccc(C)cc2)C2=NC(=O)N(C)C(=O)C21Cl)S(=O)(=O)c1ccc(C)cc1 (stereo unspecified)	60 µM	32.3 µM	58.5 µM	38	34.6 µM	83.2 µM														
O=C1CCC2(c3ccc(F)cc3)Nc3cc(Cl)ccc3N12 (stereo unspecified)	> 100 µM	> 100 µM	> 100 µM	> 100	> 100 µM		> 100 µM													
CC(C)(CC(=O)Nc1ccccc1)C(=O)O		> 100 µM	> 100 µM	> 100	> 100 µM	> 100 µM		> 100 µM	> 100 µM	> 100 µM										
OCC(O)CC[CH2][Sn]([Br])([c]1ccccc1)[c]1ccccc1 (stereo unspecified)	> 100 µM	> 100 µM	> 100 µM	> 100	> 100 µM	> 100 µM	> 100 µM				> 100000 nM	> 100000 nM	> 100 µM	> 100000 nM	> 100	> 100 µM	> 100 µM			
CCOC(=O)[C]1([Bi]([CH3])[CH3])N=NC(C(=O)OC)=C1C(=O)OC (stereo unspecified)	29.9 µM		35.8 µM	37.6	> 100 µM	> 10 µM					15600 nM		19.2 µM		11.3	42.4 µM	> 10 µM			
COC(=O)C1Cc2c(n(Cc3ccccc3)c3ccccc23)C(CCC(=O)O)N1C(C)C (stereo unspecified)	> 100 µM	> 100 µM	> 100 µM	> 100	> 100 µM	> 100 µM														
COC1/C=C\C=C(/C)C(=O)NC2=CC(=O)C(=O)C(=C2O)CC(C)CC(OC)C(O)C(C)/C=C(\C)C1OC(N)=O (stereo unspecified)		43.7 µM	3.22 µM	25.8	22.1 µM	> 100 µM	27.5 µM	> 100 µM	35.5 µM	> 42.4 µM										
O=C(/C=C/c1c(O)ccc2ccccc12)c1cccc(O)c1	> 100 µM	> 100 µM	> 100 µM	> 100	> 100 µM	> 100 µM	> 100 µM													
O=C(O)CNS(=O)(=O)c1ccc(NCc2ccccc2)cc1	> 100 µM	> 100 µM	> 100 µM	> 100	> 100 µM	> 100 µM	> 100 µM													
CCOC(=O)C1=C(OC(OCC)C(CC)[Se]c2ccccc2)CCCC1 (stereo unspecified)	54.8 µM	35.8 µM	34.1 µM	38.7	33 µM	67.7 µM	37.7 µM													
N#Cc1cc([N+](=O)[O-])ccc1NC(=O)C(=O)Nc1n[nH]c(N)n1	> 100 µM	> 100 µM	> 100 µM	> 100	> 100 µM	> 100 µM	> 100 µM													
COC12C=C(C)C(CC1)CC2C(=O)O (stereo unspecified)	> 100 µM	> 100 µM	> 100 µM	> 100	> 100 µM	> 100 µM	> 100 µM													
CC(=O)CNC(=O)OC(C)(C)C	> 100 µM	> 100 µM	> 100 µM	> 100	> 100 µM	> 100 µM	> 100 µM													
CC1=CC(=Nc2ccc(N(CCCl)CCCl)cc2)C=C(C)C1=O	7.87 µM	5.17 µM	> 26.7 µM	5.21	4.76 µM	11.3 µM		3.16 µM	4.57 µM	3.98 µM	1000 nM	1720 nM	1.01 µM		0.187	1.56 µM	2.72 µM	1460 nM	0.374 µM	413 nM
O=C1C2c3[nH]c4ccccc4c3C3CCCCCCC3C2C(=O)N1c1ccccc1 (stereo unspecified)	5.33 µM	> 100 µM	22.2 µM	25.6	15.4 µM		23.8 µM													
CCN(CC)CCOc1ccc(/C(=C(\Cl)c2ccccc2)c2ccccc2)cc1	8.5 µM and 4.95 µM	1.5 µM and 2.88 µM	11.9 µM and 16.5 µM		11.3 µM and 11.6 µM	9.95 µM and 15.2 µM	2.46 µM and 3.03 µM	11.9 µM and 12.1 µM	13.3 µM and 19.2 µM	7.55 µM and 2.99 µM	2190 nM and 1390 nM	808 nM and 1550 nM	5.28 µM and 4.43 µM	955 nM and 1490 nM		5.31 µM and 3.14 µM	3.42 µM and 3.33 µM	5480 nM and 2910 nM	6.79 µM and 5.62 µM	307 nM and 577 nM
C/C(CC(=O)Nc1cc(Cl)c(Cl)cc1Cl)=N\NC(N)=O	> 100 µM	> 100 µM		> 100		> 100 µM	> 100 µM													
CCc1ccc(/C=C\c2cc(OC)c(OC)c(OC)c2)cc1	> 100 µM	0.464 µM			> 100 µM	> 100 µM	0.0783 µM				26.1 nM		0.0539 µM		0.0274		16.7 µM			
COC(=O)c1c/c(=N\NC(=O)CC(=O)Nc2ccccc2OC)c2ccccc2o1	> 100 µM	> 100 µM	> 100 µM		> 100 µM	> 100 µM														
COc1ccc(NC2=CC(=O)C(=O)c3ccccc32)nn1		2 µM	3.52 µM	> 100	2.79 µM	3.45 µM	3.78 µM	2.05 µM	3.19 µM	2.14 µM										
C[C@@H]1OC(O)[C@@H](F)[C@H](O)[C@@H]1O (stereo partly specified)	> 100 µM	> 100 µM	> 100 µM	> 100	> 100 µM	> 100 µM		> 100 µM	> 100 µM	> 100 µM	> 100000 nM	> 100000 nM	> 100 µM		> 100	> 100 µM	> 100 µM	> 100000 nM	> 100 µM	> 100000 nM
O=C1/C(=C/c2ccccc2)CNC/C1=C\c1ccccc1	11.6 µM	4.07 µM	3.28 µM	> 25.5	2.9 µM	6.21 µM														
CCCCN=C(NC#N)NCCCC	> 100 µM	> 100 µM	> 100 µM		> 100 µM	> 100 µM	> 100 µM													
